According to patent US20250032525A1 (priority 2021, published 2025):
Where two headings read alike, the source gives them in different places.

Experiments:
[1] = test system: HT29; test: In vitro cytotoxicity (PrestoBlue); type: cell-based, human; settings: HT29, 72 h, read-out: Cytotoxic IC50
Description: (§1) Experiments were repeated at least 3 times.

[2] = test system: HCT-15; test: In vitro cytotoxicity (PrestoBlue); type: cell-based, human; settings: HCT-15, 72 h, read-out: Cytotoxic IC50
Description: as §1

[3] = test system: MCF7; test: In vitro cytotoxicity (PrestoBlue); settings: Homo sapiens, MCF7, 72 h, read-out: Cytotoxic IC50
Description: (§2) Cells were seeded in 40 μl medium on 384 well plates by an automatic liquid handling machine (Hamilton StarLet) in a density of 2500 cells/well. Adherent cells were cultured for 24 h before the addition of the compounds, while drugs were added to non-adherent cells 2 h after cell seeding. The drugs were serially diluted, and dispensed in an additional 20 μl. Cells were incubated for an additional 72 h, cytotoxicity was assessed by the PrestoBlue viability reagent (Thermo Fisher). Experiments were repeated at least 3 times.

[4] = test system: BT-549; test: In vitro cytotoxicity (PrestoBlue); settings: Homo sapiens
Description: as §2

[5] = test system: MES-SA; test: In vitro cytotoxicity; type: cell-based; settings: Homo sapiens
Description: as §1

[6] = test system: MES-SA/Dx5; test: In vitro cytotoxicity; type: cell-based; settings: Homo sapiens
Description: as §1

[7] = test system: T-47D; test: In vitro cytotoxicity (PrestoBlue); settings: Homo sapiens, T47D
Description: as §2

[8] = test system: HS 578T; test: In vitro cytotoxicity (PrestoBlue); settings: Homo sapiens
Description: as §2

[9] = In vivo toxicity (dose-finding) studies; parameters: species or system FVB mice; settings: for Mortality (%) / Survival: single iv
Description: PyDau and LiPyDau dose-finding studies were done using 10 weeks old FVB mice, by single intravenous injections of different doses of the compounds (3 mouse/dose) via the tail vein. The status of the mice was monitored daily for signs of pain or discomfort. Mice were euthanized at 20% body weight loss or at a low score (1 or 2) on the Body Condition Scoring scale. Survival was followed for 30 days and the Maximum Tolerable Dose (MTD) was defined as the highest dose where 100% survival was observed.

[10] = test system: MES-SA/Dx5 xenografts; test: MES-SA/Dx5 xenograft tumors in mice; type: in vivo, NSG mice; settings: multidrug resistant MES-SA/Dx5 tumors; DOX 2 mg/kg iv., LiPyDau 0.5 mg/kg iv. once per week
Description: 2×10^6 cells from each cell line in 200 μl serum-free culture media DMEM were inoculated into NOD.Cg-Prkdc^scid Il2rg^tm1Wjl/SzJ (NSG) mice subcutaneously in the left flank and treatment was initiated when tumors reached 200 mm^3. Mice were treated with saline (n=3 per each cell lines). […] The size of the tumors was measured every second day with a digital caliper.

[11] = test system: SW-620; settings: SW-620, NCI-60 database, sulforhodamine B; read-out: Cytotoxic IC50; cited from earlier work
[12] = test system: OVCAR-8; settings: OVCAR-8, NCI-60 database, sulforhodamine B; read-out: Cytotoxic IC50; cited from earlier work
[13] = test system: 4T1-LUC mammary tumor; test: Mouse 4T1 breast cancer model; type: in vivo, BALB/c mice; settings: 1 mg/kg LiPyDau, 5 mg/kg DOX, day 12 and 24; endpoint day 33
Description: Mouse melanoma (B16), lung (Lewis lung carcinoma, LLC) and breast (4T1-LUC) cancer cell lines were used to establish allograft tumors for drug testing. 5×10^5 B16 or 2×10^5 LLC cells were inoculated subcutaneously in 200 μl serum-free culture media. 4T1-LUC tumors were established by injecting 1×10^6 cells in 20 μl serum-free culture media through the nipple directly to the breast tissue of 8 weeks old BALB/c mice on day 0). […] For the B16, LLC and 4T1-LUC tumor models 4, 6 and 6 mice were treated with LiPyDau while 4, 3 and 6 animals were in the saline treated groups, respectively.
Growth of 4T1-LUC tumor was monitored by bioluminescence imaging. Images were taken 10 minutes after tail vein injection of 150 mg/kg dose of D-luciferin into the mouse.

[14] = test system: KM12; settings: KM12, NCI-60 database, sulforhodamine B; read-out: Cytotoxic IC50; cited from earlier work
[15] = test system: T-47D; settings: NCI-60 database, sulforhodamine B, read-out: Cytotoxic IC50; cited from earlier work
[16] = test system: SK-MEL-2; settings: SK-MEL-2, NCI-60 database, sulforhodamine B; read-out: Cytotoxic IC50; cited from earlier work
[17] = test system: HCT-116; settings: HCT-116, NCI-60 database, sulforhodamine B; read-out: Cytotoxic IC50; cited from earlier work
[18] = test system: PANC-1; settings: PANC-1, from Varbanov et al. (2017), PrestoBlue; read-out: Cytotoxic IC50; cited from earlier work
[19] = test system: A498; settings: A498, NCI-60 database, sulforhodamine B; read-out: Cytotoxic IC50; cited from earlier work
[20] = test system: HCC-2998; settings: HCC-2998, NCI-60 database, sulforhodamine B; read-out: Cytotoxic IC50; cited from earlier work
[21] = test system: PC-3; settings: PC-3, NCI-60 database, sulforhodamine B; read-out: Cytotoxic IC50; cited from earlier work
[22] = test system: OVCAR-3; settings: OVCAR-3, NCI-60 database, sulforhodamine B; read-out: Cytotoxic IC50; cited from earlier work

In the case of `COc1cccc2c1C(=O)c1c(O)c3c(c(O)c1C2=O)C[C@@](O)(C(C)=O)C[C@@H]3O[C@H]1C[C@H]2[C@H](OC3CCCN32)[C@H](C)O1` (stereo partly shown) [PyDau, 2-deamino-2-pyrrolino-daunorubicin], the IC50 [1] is reported as 3.53 nM, the IC50 ([1]; Homo sapiens, HT-29, 72 h) is reported as 3.05 nM and the IC50 [2] is reported as 2.42 nM. It also gave an IC50 ([2]; Homo sapiens) of 2.86 nM, an IC50 [3] of 5.73 nM and an IC50 ([4]; BT-549, 72 h, read-out: Cytotoxic IC50) of 4.68 nM. It also gave an IC50 [5] of 1.35 nM, an IC50 ([6]; MES-SA/Dx5) of 2.51 nM and an IC50 ([7]; 72 h, read-out: Cytotoxic IC50) of 4.25 nM. The IC50 ([8]; 72 h, read-out: Cytotoxic IC50) was 1.77 nM, the Lethality ([9]; 3, 2, 1 and 0.5 mg/kg) was “lethal” and the “Mortality (%)” value ([9]; PyDau dose 0.05 mg/kg) was 0%. For the same compound, the “Survival” value ([9]; PyDau dose 0.05 mg/kg) was greater than 30 days, the “Mortality (%)” value ([9]; PyDau dose 0.1 mg/kg) was 0% and the “Survival” value ([9]; PyDau dose 0.1 mg/kg) was greater than 30 days. The “Mortality (%)” value ([9]; PyDau dose 0.17 mg/kg) was 0%, the “Survival” value ([9]; PyDau dose 0.17 mg/kg) was greater than 30 days and the “Mortality (%)” value ([9]; PyDau dose 0.25 mg/kg) was 0%. The “Survival” value ([9]; PyDau dose 0.25 mg/kg) was greater than 30 days, the “Mortality (%)” value ([9]; PyDau dose 0.5 mg/kg) was 100% and the “Survival” value ([9]; PyDau dose 0.5 mg/kg) was 11 days. The “Mortality (%)” value ([9]; PyDau dose 1 mg/kg) was 100%, the “Survival” value ([9]; PyDau dose 1 mg/kg) was 4 days and the “Mortality (%)” value ([9]; PyDau dose 2 mg/kg) was 100%. For the same compound, the “Survival” value ([9]; PyDau dose 2 mg/kg) was 2 days, the “Mortality (%)” value ([9]; PyDau dose 3 mg/kg) was 100% and the “Survival” value ([9]; PyDau dose 3 mg/kg) was 2 days. The Safety window ([9]; dose-finding studies in mice) was “too narrow” and the MTD at 30 days ([9]; mouse, in vivo, single intravenous injection, FVB mice, highest dose with 100% survival over 30 days, read-out: Maximum Tolerable Dose (MTD)) was 0.25 mg/kg.
In the case of `COc1cccc2c1C(=O)c1c(O)c3c(c(O)c1C2=O)C[C@@](O)(C(=O)CO)C[C@@H]3O[C@H]1C[C@H](N)[C@H](O)[C@H](C)O1` [DOX, doxorubicin], the “Response / overall survival” value [10] is given as “largely ineffective”, the IC50 [11] is given as 70.1 nM and the IC50 [12] is given as 130 nM. For the same compound, the “Tumor growth / tumor cell viability” value [13] was “small but significant effect on the growth of tumors”, the IC50 [14] was 223 nM and the IC50 [15] was 83 nM. For the same compound, the IC50 [16] was 237 nM, the IC50 ([4]; BT-549) was 20 nM and the IC50 [17] was 66.1 nM. For the same compound, the IC50 ([5]; presence of 1 μM tariquidar, read-out: IC50 + TQ) was 20 nM, the IC50 ([5]; read-out: IC50) was 72 nM and the IC50 ([6]; MES-SA/Dx5, read-out: IC50) was 2880 nM. The IC50 ([6]; MES-SA/Dx5, presence of 1 μM tariquidar, read-out: IC50 + TQ) was 20 nM, the IC50 [7] was 30 nM and the IC50 [18] was 460 nM. The IC50 [19] was 85.5 nM, the IC50 [20] was 181 nM and the IC50 [21] was 246 nM. For the same compound, the IC50 [22] was 335 nM and the IC50 [8] was 80 nM.
